Where two headings read alike, the source gives them in different places.
Assays:
[1] = Infusion of exogenous PGD2 i.p. into mice, urinary PGD2 metabolites; type: in vivo, mouse
Experimental: (§1) Urine analysis: ^18O2-2,3-dinor-11β-PGF2α, and ^18O^2-11β-PGF2α were added to 1 milliliter (ml) of human urine or […] of mouse urine and were allowed to equilibrate for 15 minutes. […] The resulting residue was then reconstituted with 100 μl of 5% acetonitrile in water and was filtered by centrifugation.
(§2) The ESI source used nitrogen for both sheath and auxiliary gas and was set at 70 and 5 (arbitrary units), respectively. The mass spectrometer was operated in the negative ion mode with a capillary temperature of 350° C. and a spray voltage of 2.0 kV. […] The transitions for endogenous 2,3-dinor-11β-PGF2α and ^18O2-2,3-dinor-11β-PGF2α, were m/z 325→145 and m/z 329→145 with CE 13 eV, respectively. They were m/z […] and m/z 357→197 for 9α,11β-PGF2α and ^18O2-9α,11β-PGF2α with CE 24 eV.
Studies in mice: All studies were performed following protocol review and approval by the Institutional Animal Care and Use Committee (IAUCC) of the University of Pennsylvania. (i) Infusion studies: vehicle or PGD2 [20, 150 or 500 μg] was infused i.p. into twelve-week-old male C57/BL6 mice (n=5 per group). Urine was collected for 24 hours in metabolic cages for analysis of PGD2 metabolites. (ii) PGDS knockouts: Urine was collected for 24 hours from three- to four-month-old male wild type mice, L-PGDS knockout mice (kindly provided by Dr. Yoshihiro Urade, Osaka, Japan) and H-PGDS knockout mice (kindly provided by Dr. Yoshihide Kanaoka, Boston, Mass.), all on a C57/BL6 background (n=15 for WT and LPGDS knockouts and n=10 for H-PGDS knockouts).
(§3) Results are expressed as mean+/−SEM.

PGD2 levels = assay: Urinary tetranor PGDM in patients undergoing PTCA; type: in vivo, human; conditions: for Level of tetranor-PGDM, Post-PTCA, no aspirin / Level of tetranor-PGDM, Pre-PTCA, no aspirin / Level of tetranor-PGDM, During-PTCA, no aspirin: patient (n=1) on clopidogrel and no aspirin
From the text: PGD2 levels were studied in patients undergoing percutaneous transluminal coronary angioplasty (PTCA). PTCA is a common non-surgical treatment for opening obstructed coronary arteries. During PTCA, a balloon-tipped catheter is threaded from an artery in the groin to the trouble spot in the artery of the heart. The balloon is then inflated, thereby compressing the plaque and opening (dilating) the narrowed coronary artery so that blood flow is improved. In some instances, an expandable metal stent is also inserted; stents are wire mesh tubes used to counteract further constriction. The inclusion and exclusion criteria for participation in the PGD2 level assessment were as follows. Inclusion: • a. Males and females between the ages of 18-99. • b. […] Treated with any dose of aspirin (acetylsalicylic acid; ASA) daily for at least 5 days OR • 2. […] Treated with an alternative antiplatelet therapy, such as clopidogrel, due to an aspirin hypersensitivity or PMDs preference OR • 4. […] No aspirin therapy at all. • c. Patients presenting to the emergency room (ER) with Acute Coronary Syndrome (ACS) who will have a PTCA. • d. Patients with stable angina or positive stress tests scheduled for a cardiac catheterization. Exclusion: • a. History of unstable diabetes (Hgb A1c>8 or FBS>200). • b. Uncontrolled hypertension (SBP>180, DBP>100). • c. History of an acute confounding disease as judged on clinical screen that according to the investigator may interfere with interpretation of the study results, or compromise the safety of a potential subject. • d. […] Nineteen (19) subjects scheduled for elective PTCA and/or who presented to the emergency room with acute coronary syndrome and subsequently ordered a PTCA were screened according to the inclusion and exclusion criteria. […] Urine was collected from each subject at three times. […] Urine samples were kept at −80° C. The tetranor PDGM level in each sample was then determined by stable isotope dilution, tandem mass spectrometric quantification, following thawing of the sample. The tetranor PGDM level was normalized to the quantity in milligrams (mg) of urine creatinine.

biosynthesis of PGD2 [2] = assay: Aspirin single dose in healthy volunteers, urinary PGD2 metabolites; type: in vivo, human; conditions: mean±SEM
Experimental: as §1, §2
(§4) Clinical Studies: Four clinical studies were performed.
In a fourth study, a single dose of aspirin (325 mg) was administered to healthy volunteers (n=18; 9 males and 9 females). Urinary PGD2 metabolites were assessed at time 0 in spot urines and 0-4 hours in urine collected from 0-4 hrs after dosing.
as §3

biosynthesis of PGD2 [3] = test system: biosynthesis of PGD2
Experimental: (§5) In a second study, niacin (dose was 400 mg or 600 mg) was administered to two healthy male volunteers. Urinary PGD2 metabolites were assessed in spot urines collected at the following time points before (time 0) and after (1, 2, 3, 4, 5, 6 hours) niacin administration.

[4] = Experimental: as §5
biosynthesis of PGD2 [5] = assay: Rofecoxib single dose in healthy volunteers, urinary PGD2 metabolites; type: in vivo, human; conditions: rofecoxib 25 mg single dose, 0 vs 4 hours
Experimental: as §1, §2, §4
In a third study, 18 healthy volunteers (9 male and 9 female) received, in random order, a single dose of placebo or rofecoxib (25 mg) under double-blind conditions, separated by washout periods of at least 2 weeks. Urinary PGD2 metabolites were assessed at 0 and 4 hours in spot urine samples that were collected 30 minutes after voiding.
as §3

[6] = mice, 20, 150 or 500 μg PGD2 i.p.
[7] = mice, maximal dose 500 ug PGD2 i.p., 24 h urine, mean±SEM
[8] = time 0, before aspirin 325 mg single dose
[9] = niacin 400 mg or 600 mg, spot urines 0-6 hours

Structure (SMILES): CCCCC[C@H](O)/C=C/[C@H]1C(=O)C[C@H](O)[C@@H]1C/C=C\CCCC(=O)O [PGD2, prostaglandin D2]
- fractional conversion of PGD2 to each metabolite [1, 6]: uninfluenced by dose
- response of all 3 urinary metabolites to PGD2 infusion [1, 6]: increased dose dependently
- infused PGD2 excreted as the tetranor PGDM metabolite in mouse urine ([1]; mice, i.p. infusion): 3-10%
- urinary 2,3-dinor-11β-PGF2α level attained after PGD2 infusion [1, 7]: 809±346 ng/mg creatinine
- urinary 11β-PGF2α level attained after PGD2 infusion [1, 7]: 207±67 ng/mg creatinine
- urinary tetranor PGDM level attained after PGD2 infusion [1, 7]: 2498±792 ng/mg creatinine

Structure (SMILES): CC(=O)Oc1ccccc1C(=O)O [aspirin, acetylsalicylic acid]
- Level of tetranor-PGDM, Post-PTCA, 81 mg aspirin (PGD2 levels; patients (n=3) on daily 81 mg aspirin, urine after procedure): 3.1 ng/mg creatinine
- Level of tetranor-PGDM, Pre-PTCA, 81 mg aspirin (PGD2 levels; patients (n=3) on daily 81 mg aspirin, urine before procedure): 2.6 ng/mg creatinine
- Level of tetranor-PGDM, During-PTCA, 81 mg aspirin (PGD2 levels; patients (n=3) on daily 81 mg aspirin, urine during procedure): 1.8 ng/mg creatinine
- Level of tetranor-PGDM, Post-PTCA, 325 mg aspirin (PGD2 levels; patients on daily 325 mg aspirin, urine after procedure): 3.1 ng/mg creatinine
- Level of tetranor-PGDM, Pre-PTCA, 325 mg aspirin (PGD2 levels; patients on daily 325 mg aspirin, urine before procedure): 2.9 ng/mg creatinine
- Level of tetranor-PGDM, During-PTCA, 325 mg aspirin (PGD2 levels; patients on daily 325 mg aspirin, urine during procedure): 2.8 ng/mg creatinine
- urinary tetranor PGDM level following aspirin (biosynthesis of PGD2 [2]; 0-4 hrs after aspirin 325 mg single dose, p<0.001): 0.86±0.07 ng/mg creatinine
- urinary 2,3-dinor-11β-PGF2α level following aspirin (biosynthesis of PGD2 [2]; 0-4 hrs after aspirin 325 mg single dose, p<0.01): 0.32±0.04 ng/mg creatinine
- urinary 2,3-dinor-11β-PGF2α level before aspirin (biosynthesis of PGD2 [2]; [8]): 0.63±0.11 ng/mg creatinine
- urinary tetranor PGDM level before aspirin (biosynthesis of PGD2 [2]; [8]): 1.71±0.21 ng/mg creatinine

Structure (SMILES): COC(=O)[C@H](c1ccccc1Cl)N1CCc2sccc2C1 [clopidogrel]
- Level of tetranor-PGDM, Post-PTCA, no aspirin (PGD2 levels; urine after procedure): 13.1 ng/mg creatinine
- Level of tetranor-PGDM, Pre-PTCA, no aspirin (PGD2 levels; urine before procedure): 11.5 ng/mg creatinine
- Level of tetranor-PGDM, During-PTCA, no aspirin (PGD2 levels; urine during procedure): 26.3 ng/mg creatinine

Structure (SMILES): O=C(O)c1cccnc1 [niacin]
- relationship between metabolite excretion and the doses of niacin (biosynthesis of PGD2 [3]; 400 mg vs 600 mg): not apparent
- time of fall of urinary metabolites to basal levels after dosing (biosynthesis of PGD2 [3]; niacin 400 mg or 600 mg): 5 to 6 h
- time of peak of urinary tetranor PGDM and 2,3-dinor-11β-PGF2α after dosing (biosynthesis of PGD2 [3]; niacin 400 mg or 600 mg): 2 to 3 h
- effect on urinary 2,3-dinor-11β-PGF2α (biosynthesis of PGD2 [3]; [9]): elevated
- effect on urinary tetranor PGDM (biosynthesis of PGD2 [3]; [9]): elevated
- time after which flushing had dissipated ([4]; niacin 400 mg or 600 mg oral): 2 to 3 h
- flushing after oral administration ([4]; niacin 400 mg or 600 mg, two volunteers, face and upper part of the body): intense flush

Structure (SMILES): CS(=O)(=O)c1ccc(C2=C(c3ccccc3)C(=O)OC2)cc1 [rofecoxib]
- effect on urinary 2,3-dinor-11β-PGF2α (biosynthesis of PGD2 [5]): failed to depress
- effect on urinary tetranor PGDM (biosynthesis of PGD2 [5]): failed to depress

Structure (SMILES): O=C(O)CCCCC(=O)CC[C@H]1C(=O)C[C@H](O)[C@@H]1CCC(=O)O [tetranor PGDM, 11,15-dioxo-9α-hydroxy-2,3,4,5-tetranor-prostan-1,20-dioic acid]
- Level of tetranor-PGDM, Post-PTCA, no aspirin (PGD2 levels; urine after procedure): 13.1 ng/mg creatinine
- Level of tetranor-PGDM, Pre-PTCA, no aspirin (PGD2 levels; urine before procedure): 11.5 ng/mg creatinine
- Level of tetranor-PGDM, During-PTCA, no aspirin (PGD2 levels; urine during procedure): 26.3 ng/mg creatinine

From patent US8785682B2, “Tetranor PGDM: a biomarker of PGD2 synthesis in vivo” (The Trustees of the University of Pennsylvania, priority 2007, dated 2014)
